According to US20170209534A1, “Pseudhymenochirins As Agents For Treatment Of Cancer And Microbial Infections” (priority 2014, published 2017):
Read-outs that look alike come from different tables or passages of the source. No end group written: not given here.

How the values were obtained:
[1] = test system: Acinetobacter strains; settings: strains NM8, NM35, NM75, NM109, NM124; Mechkarska et al., 2013; cited from earlier work
[2] = in vitro; format: cell-based
Description: (§1) For cytotoxicity assay, the effect of the peptides on three different types of cancer cells were analysed, human non-small cell lung adenocarcinoma A549 cells, human breast adenocarcinoma MDA-MB-231 cells and human colorectal adenocarcinoma HT-29 cells. As control, HUVEC cell line was selected.
(§2) A549 cell line was maintained in RPMI 1640 medium containing 2 mM L-glutamine and supplemented with 10% FCS at 37° C. MDA-MB-231 and HT-29 cell lines were maintained in DMEM medium supplemented with 10% FCS at 37° C. The medium for cancer cells were further supplemented with antibiotics, penicillin 50 U/mL and streptomycin […]. HUVEC cells were maintained in EndoGRO MV-VEGF Complete Media Kit at 37° C.
(§3) The cells from each of the four cell lines were seeded individually in a 96-wells plate at a cell density of 5×10^3 cells/well. […]
(§4) The effect of the peptides on the cell viability was determined by the measurement of the concentration of ATP using CellTitre-Glo Luminescent Cell Viability assay. Luminescent signals were measured using a GLOMAX Luminometer system.
(§5) The LC50 value was calculated for both the peptides for individual cell lines by conducting non-linear regression analysis using commercially available software (SPPS version 17.0; SPS Inc, Chicago, Ill., USA). […]

[3] = test system: P. aeruginosa; test: MIC by micro-dilution, P. aeruginosa; format: cell-based; settings: reference strain
Description: (§6) Minimum Inhibitory Concentration (MIC) of the peptides was determined in duplicate in three independent experiments by standard micro-dilution methods according to CLSI guidelines (Clinical Laboratory and Standards Institute 2008a, 2008b) using 96-well microtitre cell-culture plates.
(§7) For bacteria assays, serial dilutions of the peptides (0.6-80 μM) in Mueller-Hinton broth (50 μL) were mixed with an inoculum of 50 μL of 10^6 colony forming units (CFU)/mL) from a log-phase culture. The peptide and inoculum mixture was incubated for 18 h at 37° C. in a humidified atmosphere. For yeast, an inoculum of 5×10^4 CFU/mL from Candida albicans was incubated in the presence of serial dilutions of the peptides (0.6-80 μM) in RPMI 1640 medium for 48 h at 35° C. After incubation, the absorbance at 630 nm of each well was determined using a microtiter plate reader.
(§8) As a control, incubations were carried out in parallel with increasing concentrations of antibiotics wherever the isolate was originally susceptible (ampicillin for S. aureus and E. coli, ciprofloxacin for K. pneumoniae and P. aeruginosa, and amphotericin B for C. albicans).

[4] = test system: S. epidermidis; test: MIC by micro-dilution, S. epidermidis; format: cell-based; settings: for Minimum inhibitory concentration S. epidermidis RP62A: strain RP62A; for Minimum inhibitory concentration S. epidermidis RP62A/1: strain RP62A/1; for Minimum inhibitory concentration S. epidermidis T6/19: strain T6/19; for Minimum inhibitory concentration S. epidermidis T37/8: strain T37/8
Description: as §6, §7

[5] = test system: S. aureus (ATCC 25923 and MRSA clinical isolates); format: cell-based, Staphylococcus aureus; settings: for Minimum inhibitory concentration S. aureus ATCC 25923 / Minimum inhibitory concentration S. aureus S908: ATCC 25923; for Minimum inhibitory concentration S. aureus 127/08 / Minimum inhibitory concentration S. aureus 145/08 / Minimum inhibitory concentration S. aureus 274/08 / Minimum inhibitory concentration S. aureus T4/6: MRSA clinical isolate
Excerpt: Six clinical sporadic isolates of MRSA were isolated from the wounds of patients admitted to Tawam Hospital (Al Ain, UAE). The strains were characterised by multi-locus sequence typing (MLST), Staphylococcal cassette chromosome (SCCmec) typing, accessory gene regulator (agr) typing, Staphylococcus protein A (spa) typing, and toxin gene carriage (Sonnevend et al., 2012). The isolated strains (127/08, 145/08, 274/08, V4180, S908, and T4/6) were resistant to all β-lactam antibiotics tested and to a range of non-β-lactam antibiotics.
as §6, §7, §8

[6] = test system: E. faecalis ATCC 29212; test: MIC by micro-dilution, E. faecalis; format: cell-based, Enterococcus faecalis; settings: reference strain
Description: as §6, §7

[7] = test system: human breast adenocarcinoma MDA-MB-231 cells; test: Viability assay (CellTiter-Glo, ATP), MDA-MB-231; format: cell-based; settings: 24 h exposure; mean ± S.E.M.; read-out: LC50 MDA-231
Description: as §1, §2, §3, §4, §5

[8] = test system: human red blood cells (RBC); test: Haemolysis assay; format: cell-based
Description: (§9) For analysis of the haemolytic activity, RBCs (2×10^7 cells) taken from a healthy donor in DBPS, pH 7.4 (100 μL) were incubated with Ps-1Pb and Ps-2 Pa respectively in varying concentrations ranging from 1.6 μM to 100 μM of the peptides for a period of 1 hour at 37° C. After 1 hr, the samples were centrifuged at 12000 rpm for 15 seconds and the supernatant was collected. Absorbance of the supernatant was measured at 450 nm.
(§10) As control, the RBCs at a concentration of 2×10^7 were incubated in DBPS as a negative control to detect the absorbance in the absence of haemolysis. In addition, positive control was also maintained in which the RBC at a concentration of 2×10^7 was incubated with DPBS and 1% v/v Tween-20. The controls were centrifuged at 12000 rpm for 15 seconds and an absorbance reading was taken for the supernatant at 450 nm.
(§11) The LC50 value was taken as the mean concentration of peptide producing 50% haemolysis in three independent experiments.

[9] = Haemolysis assay; format: cell-based, human; settings: human, pH 7.4
Description: as §9, §10, §11

[10] = test system: C. albicans; test: MIC by micro-dilution, C. albicans; format: cell-based, Candida albicans; settings: reference strain; RPMI 1640, 48 h at 35° C.
Description: as §6, §7, §8

[11] = test system: S. maltophilia
Description: (§12) Acinetobacter strains (NM8, NM35, NM75, NM109, and NM124) were isolated from different hospitals in the UAE. The Acinetobacter strains were characterised based on PCR analysis. […] Stenotrophomonas maltophilia strains (B32/1, B32/4, B5/5, B6/2, and U8708) were isolated from patients with bloodstream infection as discussed in Jumaa et al, 2006.
as §6, §7

[12] = test system: A. baumannii
Description: as §12, §6, §7

[13] = test system: E. coli; test: MIC by micro-dilution, E. coli; format: cell-based; settings: reference strain
Description: as §6, §7, §8

[14] = test system: K. pneumoniae; test: MIC by micro-dilution, K. pneumoniae; format: cell-based; settings: reference strain
Description: as §6, §7, §8

[15] = test system: human colorectal adenocarcinoma HT-29 cells; test: Viability assay (CellTiter-Glo, ATP), HT-29; format: cell-based; settings: 24 h exposure; mean ± S.E.M.; read-out: LC50 HT-29
Description: as §1, §2, §3, §4, §5

[16] = test system: S. aureus (ATCC 25923); format: cell-based; settings: 4×MIC, within 180 min
Description: In order to determine the rate at which the peptides caused cell death, log-phase cultures of S. aureus (ATCC 25923) and E. coli (ATCC 25726) at a concentration of 0.5×10^6 CFU/mL in Mueller-Hinton broth (1 ml) were incubated in polypropylene tubes at 37° C. with Ps-1Pb at a concentration of 4×MIC. Control incubations in the absence of peptide were also carried out. Aliquots of 25 μl were removed at the time intervals 0, 0.5, 1, 2, 3, 4 and 24 hrs and the CFU of the serially diluted samples was determined on Mueller-Hinton agar plates. The time required for 99.9% cell death was determined.

[17] = test system: Stenotrophomonas maltophilia strains; settings: all Stenotrophomonas strains (B32/1, B32/4, B5/5, B6/2, U8708); cited from earlier work
[18] = 1 hour at 37° C., mean ± S.E.M., read-out: LC50 RBC (50% haemolysis)

| Compound | susceptibility of Acinetobacter strains (in words) [1] | Minimum inhibitory concentration P. aeruginosa [3] [µM] | Minimum inhibitory concentration S. epidermidis RP62A [4] [µM] | Minimum inhibitory concentration S. epidermidis RP62A/1 [4] [µM] | Minimum inhibitory concentration S. epidermidis T6/19 [4] [µM] | Minimum inhibitory concentration S. epidermidis T37/8 [4] [µM] | Minimum inhibitory concentration S. aureus V4180 [5] [µM] | Minimum inhibitory concentration S. aureus ATCC 25923 [5] [µM] | Minimum inhibitory concentration S. aureus S908 [5] [µM] | Minimum inhibitory concentration S. aureus 127/08 [5] [µM] | Minimum inhibitory concentration S. aureus 145/08 [5] [µM] | Minimum inhibitory concentration S. aureus 274/08 [5] [µM] | Minimum inhibitory concentration S. aureus T4/6 [5] [µM] | Minimum inhibitory concentration E. faecalis ATCC 29212 [6] [µM] | Minimum inhibitory concentration C. albicans [10] [µM] | Minimum inhibitory concentration S. maltophilia B5/5 ([11]; clinical isolate) [µM] | Minimum inhibitory concentration S. maltophilia B6/2 ([11]; clinical isolate) [µM] | Minimum inhibitory concentration S. maltophilia B32/1 ([11]; clinical isolate) [µM] | Minimum inhibitory concentration S. maltophilia B32/4 ([11]; clinical isolate) [µM] | Minimum inhibitory concentration A. baumannii NM8 [12] [µM] | further results |
| --- | --- | --- | --- | --- | --- | --- | --- | --- | --- | --- | --- | --- | --- | --- | --- | --- | --- | --- | --- | --- | --- |
| colistin | sensitive |  |  |  |  |  |  |  |  |  |  |  |  |  |  |  |  |  |  |  |  |
| GIFPIFAKLLGKVIKVASSLISKGRTE [Pseudhymenochirin-2Pa, Pseudhymenochirin-2 Pa] |  | >80 | 5 | 2.5 | 5 | 10 | 10 | 5 | 10 | 5 | 10 | 10 | 10 | 20 | 80 | 40 | 20 | 10 | 10 | 20 | CC50 at 24 h ([2]; 24 h exposure, non-neoplastic cells, mean ± S.E.M., read-out: LC50 HUVEC): 68 µM; CC50 [7]: 6.2 ± 0.6 µM; CC50 [8, 18]: 6 µM; haemolytic activity (in words) ([8]; human erythrocytes): appreciable haemolytic activity; HC50 at 1 hour [9, 18]: 6.2 ± 1 µM; Minimum inhibitory concentration S. maltophilia U8908 ([11]; clinical isolate): 20 µM; Minimum inhibitory concentration A. baumannii NM35 [12]: 10 µM; Minimum inhibitory concentration A. baumannii NM75 [12]: 10 µM; Minimum inhibitory concentration A. baumannii NM109 [12]: 10 µM; Minimum inhibitory concentration A. baumannii NM124 [12]: 20 µM; Minimum inhibitory concentration E. coli [13]: >80 µM; Minimum inhibitory concentration K. pneumoniae [14]: >80 µM; CC50 [15]: 11.5 ± 2.6 µM |
| IKIPSFFRNILKKVGKEAVSLIAGALKQS [Pseudhymenochirin-1Pb] |  | 20 | 2.5 | 1.25 | 2.5 | 2.5 | 5 | 5 | 5 | 5 | 10 | 5 | 5 | 10 | 80 | 10 | 5 | 5 | 5 | 10 | CC50 at 24 h ([2]; human): 5.6 ± 0.9 µM; haemolytic activity (in words) [8]: high haemolytic activity; less cytotoxic to human erythrocytes as compared to the tumour cells [8]: 3-11 fold; HC50 at 1 hour [9]: 28 ± 2 µM; MIC against clinical isolates of S. maltophilia (range) [11]: 5 to 10 µM; Minimum inhibitory concentration S. maltophilia U8908 [11]: 5 µM; MIC against clinical isolates of A. baumannii (range) [12]: 5 to 10 µM; Minimum inhibitory concentration A. baumannii NM35 [12]: 5 µM; Minimum inhibitory concentration A. baumannii NM75 [12]: 5 µM; Minimum inhibitory concentration A. baumannii NM109 [12]: 5 µM; Minimum inhibitory concentration A. baumannii NM124 [12]: 5 µM; Minimum inhibitory concentration E. coli [13]: 10 µM; Minimum inhibitory concentration K. pneumoniae [14]: 20 µM; killing of the bacteria, S. aureus [16]: > 99.9% |
| C[C@@H](O)[C@H]1C(=O)N2C(C(=O)O)=C(S[C@@H]3CN[C@H](C(=O)N(C)C)C3)[C@H](C)[C@H]12 [meropenem] |  |  |  |  |  |  |  |  |  |  |  |  |  |  |  |  |  |  |  |  | MIC against Stenotrophomonas strains [17]: > 32 µg/mL |
| CN(C)c1cc(NC(=O)CNC(C)(C)C)c(O)c2c1C[C@H]1C[C@H]3[C@H](N(C)C)C(O)=C(C(N)=O)C(=O)[C@@]3(O)C(O)=C1C2=O [tigecycline] | sensitive |  |  |  |  |  |  |  |  |  |  |  |  |  |  |  |  |  |  |  |  |
| co-trimoxazole |  |  |  |  |  |  |  |  |  |  |  |  |  |  |  |  |  |  |  |  | MIC against Stenotrophomonas strains [17]: < 5 µg/mL |
